From publication PMC10186366 (ACS Pharmacology & Translational Science, 2023)

Experiments:
KB tumor cells = assay: Metabolite rescue of growth inhibition in KB cells; type: cell-based, human; conditions: glycine- and nucleoside-free media; for Protection from growth inhibition by glycine plus adenosine over adenosine alone: 160 μM glycine combined with 60 μM adenosine; for Protection from growth inhibition by adenosine: inhibitor up to 1000 nM, 60 μM adenosine alone
Experimental: Upper panel: schematic of C1 metabolism. Undefined abbreviations include the following: DHF, dihydrofolate; THF, tetrahydrofolate; FAICAR, formyl 5-aminoimidazole-4-carboxamide ribonucleotide; fGAR, formyl GAR; and 5,10-meTHF, 5,10-methylene tetrahydrofolate. Lower panels: KB cells were plated (4000 cells/well) in glycine-, nucleoside-, and folate-free RPMI 1640 medium with 10% dialyzed fetal bovine serum, antibiotics, L-glutamine, and 2 nM leucovorin over a range of inhibitor concentrations in the presence of adenosine (60 μM), glycine (160 μM), thymidine (10 μM), or AICA (320 μM). As shown, combined glycine plus adenosine or AICA was also tested to identify potential mitochondrial C1 targeting.[45] Cell proliferation was assayed with a fluorescence-based assay.[26] Data are representative of at least triplicate experiments (presented as mean values plus/minus standard errors). Methods are described in the Experimental Section, and additional metabolite rescue data for 4, 5, and 8–11 are presented in Figure S3 (Supporting Information).
Metabolite “rescue” experiments have been used to identify targeted pathways for novel antifolate inhibitors including de novo purine nucleotide and thymidylate biosynthesis (protection by adenosine and thymidine, respectively)[25]−[27],[29],[30],[32],[43],[45]−[47] and mitochondrial C1 metabolism (protection by glycine and adenosine).[45] To gain insights into the targeted pathways that contribute to the loss of KB tumor cell proliferation upon treatment with compounds 3–9, we tested the reversal of growth inhibition by the active compounds in Table 1 (up to 1000 nM) in glycine- and nucleoside-free media in the presence of 60 μM adenosine, 160 μM glycine, or 10 μM thymidine alone or with combined adenosine and glycine. The use of glycine- and nucleoside-free media for these experiments expands the ability to identify causal intracellular targets (including previously unrecognized mitochondrial targets[45]) that can be confirmed by targeted metabolomics and direct in vitro assays (below). […] The results of these experiments are shown in Figure 7 (lower panel) and in Figure S3 (Supporting Information).
AICA circumvents the first folate-dependent enzyme, GARFTase, and is directly metabolized to ZMP (AICAR), thus providing a substrate for AICARFTase[26],[32],[46] (Figure 7, upper panel). This distinguishes primary inhibition at GARFTase (protection by AICA) versus AICARFTase (incomplete protection by AICA) for inhibitors of de novo purine biosynthesis.[25]
Additional proliferation assays with metabolite rescue used KB cells to identify the targeted pathway and enzyme(s) in folate- and glycine-free RPMI1640, DFBS, 2 mM glutamine, and antibiotics. […] These assays have been previously described.[25],[26],[45]

[1] = tested on: R2 (MTXRIIOuaR2-4) RFC-, PCFT-, and FRα-null CHO cells; assay: Cell proliferation assay, transporter-null R2 CHO subline; type: cell-based, Chinese hamster; conditions: Cricetulus griseus, transporter-null control cells, 96 h, up to 1000 nM, mean (standard error)
From the text: (§1) We used a unique panel of engineered Chinese hamster ovary (CHO) sublines derived from a transporter-null MTXRIIOua^R2-4 CHO subline (R2) and designed to individually express human FRα (RT16), FRβ (D4), RFC (PC43-10), or PCFT (R2/PCFT).[39]−[42] As the CHO sublines are isogenic and differ only in the presence or absence of the human folate transporters, differences in the extent of inhibition of cell proliferation between the cell lines upon treatment with the various compounds provide a robust readout of transport specificities.[25],[26],[29],[30],[43]
(§2) The CHO sublines were treated for 96 h with a range of drug concentrations up to 1000 nM; cell viabilities were measured with a fluorescence assay.[26] […] As a control, we used transporter-null R2 cells.[42] To extend studies to human tumor cells, we also performed experiments in RFC-, PCFT-, and FRα-expressing KB tumor cells.[44] To confirm the contribution of FR-mediated uptake to antitumor activity, for KB cells, we added 200 nM folic acid, which inhibits FR uptake by direct competition without effects on either RFC or PCFT.[25],[26],[28]−[30],[43]
(§3) The MTXRIIOua^R2-4 RFC-, PCFT-, and FRα-null Chinese hamster ovary (CHO) cell line (R2) was a gift from Dr. Wayne Flintoff (University of Western Ontario).[40],[42] Isogenic CHO cell lines were subsequently derived from R2 cells by transfection with RFC, PCFT, or FRα cDNAs to generate PC43-10 (expresses only human RFC), R2/PCFT4 (expresses only human PCFT), RT16 (expresses only human FRα), and D4 (expresses only human FRβ).[25],[26],[39]
(§4) The CHO sublines were cultured in α-minimal essential medium (α-MEM) supplemented with 100 U/mL penicillin/100 μg/mL streptomycin, 2 mM L-glutamine, and 10% bovine calf serum (Sigma-Aldrich). For the PC43-10, R2/PCFT4, RT16, and D4 sublines, 1.5 mg/mL G418 was also added. Seventy-two hours prior to in vitro proliferation assays (below), RT16 and D4 CHO cells were grown in folate-free RPMI with dialyzed fetal bovine serum (DFBS) (Invitrogen) supplemented with 100 U/mL penicillin/[…] streptomycin and 2 mM L-glutamine. FRα-expressing KB nasopharyngeal carcinoma cells were acquired from the American Type Culture Collection (Manassas, VA); cells were grown in complete folate-free RPMI 1640 supplemented with 10% fetal bovine serum, 100 U/mL penicillin/100 μg/mL streptomycin, and 2 mM L-glutamine. Cell lines were authenticated by STR analysis (Genetica DNA Laboratories, Burlington, NC) and tested for Mycoplasma by PCR (Venor GeM Mycoplasma Detection Kit, Sigma). Frozen stocks were generated from authenticated Mycoplasma-free cultures.
(§5) Cell proliferation assays used CHO and KB cells cultured in folate-free-RPMI 1640 media with 10% DFBS, 2 mM L-glutamine, and 100 U/mL penicillin/100 μg/mL streptomycin supplemented with 2 nM (KB, RT16, D4) or 25 nM (R2, PC43-10, R2/PCFT4) leucovorin.[25],[26],[30] Parallel incubations with 200 nM folic acid were performed in viability assays to confirm FR-mediated drug uptake. Cells were plated in 96-well dishes at 2500–5000 cells/well in 200 μL media and treated with a range of C1 inhibitors spanning 0 to 1 μM. Cells were treated at 37 ° C with 5% CO2, and numbers were assayed after 96 h using CellTiter-blue (Promega, Madison, WI) and a fluorescence plate reader.[25],[26]

[2] = tested on: RT16 CHO cells (expresses only human FRα); assay: Cell proliferation assay, RT16 CHO subline; type: cell-based, Chinese hamster
From the text: as §1, §2, §3, §4, §5

[3] = tested on: R2/PCFT4 CHO cells (expresses only human PCFT); assay: Cell proliferation assay, R2/PCFT4 CHO subline; type: cell-based, Chinese hamster; conditions: 96 h, 25 nM leucovorin, mean (standard error)
From the text: as §1, §2, §3, §4, §5

[4] = Homo sapiens, RT16, 96 h, 2 nM leucovorin, mean (standard error)
[5] = Homo sapiens, RT16; 96 h, 2 nM leucovorin; mean (standard error)

| SMILES | Protection from growth inhibition by glycine plus adenosine over adenosine alone (KB tumor cells) | IC50 [1] [nM] | IC50 ([2]; 96 h, 2 nM leucovorin; mean (standard error)) [nM] | IC50 [2, 4] [nM] | IC50 [3] [nM] | IC50 [2, 5] [nM] | Protection from growth inhibition by adenosine (KB tumor cells) |
| --- | --- | --- | --- | --- | --- | --- | --- |
| Nc1nc2sc(CCCc3ccc(C(=O)N[C@@H](CCC(=O)O)C(=O)O)cc3)cc2c(=O)[nH]1 [Compound 1] | substantially enhanced and was complete | – | – | – | – | – | – |
| Nc1nc2sc(CCCCc3cccc(C(=O)N[C@@H](CCC(=O)O)C(=O)O)n3)cc2c(=O)[nH]1 [Compound 3, (6-(4-(2-Amino-4-oxo-3,4-dihydrothieno[2,3-d]pyrimidin-6-yl)butyl)picolinoyl)-L-glutamic Acid] | – | > 1000 | 24.7 | 25 | > 1000 | – | – |
| Nc1nc2sc(CCCCc3ccc(C(=O)N[C@@H](CCC(=O)O)C(=O)O)nc3)cc2c(=O)[nH]1 [Compound 4, (5-(4-(2-Amino-4-oxo-3,4-dihydrothieno[2,3-d]pyrimidin-6-yl)butyl)picolinoyl)-L-glutamic Acid] | slightly and reproducibly enhanced | > 1000 | – | – | 318 | 0.94 | substantially protective |
| Nc1nc2sc(CCCCc3cnc(C(=O)N[C@@H](CCC(=O)O)C(=O)O)c(F)c3)cc2c(=O)[nH]1 [Compound 5, (5-(4-(2-Amino-4-oxo-3,4-dihydrothieno[2,3-d]pyrimidin-6-yl)butyl)-3-fluoropicolinoyl)-L-glutamic Acid] | – | > 1000 | – | 1.23 | 344 | – | completely protective |
| Nc1nc2sc(CCCc3ccc(C(=O)N[C@@H](CCC(=O)O)C(=O)O)c(F)c3)cc2c(=O)[nH]1 [Compound 6, (4-(3-(2-Amino-4-oxo-3,4-dihydrothieno[2,3-d]pyrimidin-6-yl)propyl)-2-fluorobenzoyl)-L-glutamic Acid] | substantially enhanced and was complete | > 1000 | – | 1.07 | 591 | – | – |
| Nc1nc2sc(CCCCc3ccc(C(=O)N[C@@H](CCC(=O)O)C(=O)O)c(F)c3)cc2c(=O)[nH]1 [Compound 7, (4-(4-(2-Amino-4-oxo-3,4-dihydrothieno[2,3-d]pyrimidin-6-yl)butyl)-2-fluorobenzoyl)-L-glutamic Acid] | slightly and reproducibly enhanced | > 1000 | – | 2.27 | > 1000 | – | substantially protective |
| Nc1nc2sc(CCCc3csc(C(=O)N[C@@H](CCC(=O)O)C(=O)O)c3F)cc2c(=O)[nH]1 [Compound 8, (4-(3-(2-Amino-4-oxo-3,4-dihydrothieno[2,3-d]pyrimidin-6-yl)propyl)-3-fluorothiophene-2-carbonyl)-L-glutamic Acid] | – | > 1000 | – | 1.96 | > 1000 | – | completely protective |
| Nc1nc2sc(CCCCc3csc(C(=O)N[C@@H](CCC(=O)O)C(=O)O)c3F)cc2c(=O)[nH]1 [Compound 9, (4-(4-(2-Amino-4-oxo-3,4-dihydrothieno[2,3-d]pyrimidin-6-yl)butyl)-3-fluorothiophene-2-carbonyl)-L-glutamic Acid] | slightly and reproducibly enhanced | > 1000 | – | – | 167 | 1.29 | substantially protective |
